Experimental data reported in patent publication US11807693B2 (priority 2014, dated 2023).
Read-outs that look alike come from different tables or passages of the source. Starred links: 1 amine or outer side, 2 acyl side, 3 side chain; linkers in the order of their positions; H or OH if unused. Non-standard residues stand in square brackets, D forms with d. Residues, ends and D or L forms follow the SMILES beside them. *: point of attachment. Oic = O=C(O)[C@@H]1C[C@@H]2CCCC[C@@H]2N1; Phe(4-Cl) = N[C@@H](Cc1ccc(Cl)cc1)C(=O)O; γGlu = O=C(O)[C@H](CCC(=O)[*:2])N[*:1]; d(β3hF) = N[C@@H](CC(=O)O)Cc1ccccc1; NMeR = CN[C@@H](CCCNC(=N)N)C(=O)O; Palmitoyl = CCCCCCCCCCCCCCCC(=O)*; Tridecanoyl = CCCCCCCCCCCCC(=O)*; X1 = O=C(CN(C1CCNCC1)[*:1])[*:2]; hArg = N=C(N)NCCCC[C@H](N)C(=O)O; 3Pal = N[C@@H](Cc1cccnc1)C(=O)O; Cha = N[C@@H](CC1CCCCC1)C(=O)O; αMeL = CC(C)C[C@](C)(N)C(=O)O; β3hP = O=C(O)C[C@@H]1CCCN1; Pip = O=C(O)[C@@H]1CCCCN1; Nle = CCCC[C@H](N)C(=O)O; Deg = CCC(N)(CC)C(=O)O; AEEA = NCCOCCOCC(=O)O; Aib = CC(C)(N)C(=O)O; βAla = NCCC(=O)O

Assays:
rat APJ receptor = molecular target: T1, rat APJ receptor (Rattus norvegicus, UniProt Q9JHG3); assay: [35S] GTPγS assay, rat APJ receptor; type: biochemical
T1 construct: expressed in transfected cells
T1 sequence (Q9JHG3 1-377): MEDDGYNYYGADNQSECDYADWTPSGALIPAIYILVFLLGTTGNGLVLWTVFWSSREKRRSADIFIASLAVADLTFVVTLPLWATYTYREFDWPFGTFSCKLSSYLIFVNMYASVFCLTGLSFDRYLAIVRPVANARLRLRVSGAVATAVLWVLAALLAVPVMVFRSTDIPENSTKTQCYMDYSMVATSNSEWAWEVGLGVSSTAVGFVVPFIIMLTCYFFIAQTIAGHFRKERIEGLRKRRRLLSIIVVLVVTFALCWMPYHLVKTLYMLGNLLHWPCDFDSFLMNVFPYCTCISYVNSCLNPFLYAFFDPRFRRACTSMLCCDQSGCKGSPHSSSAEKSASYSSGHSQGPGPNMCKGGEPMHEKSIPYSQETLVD
Experimental: The membranes were incubated with modified peptides in the assay buffer. […] Bound [^35S] GTPγS was separated from free radiolabel by filtration. The filter bound radioactivity was determined by liquid scintillation counting.

[1] = In vitro stability in rat plasma; type: in vitro ADME
Summary of the method: (§1)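 Peptide 5 μM final; rat plasma / liver homog. / kidney homog.; 37° C., 4 hr. Quench MeOH + IS, vortex 15 min RT, spin 5500 g 15 min; supernatant by HR LC-MS.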

[2] = In vitro stability in rat liver homogenate; type: in vitro ADME; details: tissue homogenate
Summary of the method: as §1

[3] = rat APJ receptor, read-out: EC50 Rat APJ Receptor
[4] = Table 16, read-out: EC50 Rat APJ Receptor

Compound | EC50 (rat APJ receptor; [3]) | remaining at 4 h, 5 μM [1] | remaining at 4 h, 5 μM [2] | EC50 (rat APJ receptor; [4]) | EC50 (rat APJ receptor; aqueous stock, absence of DMSO, read-out: rAPJ EC50)
CC[C@H](NC(=O)[C@H](CC(N)=O)NC(=O)[C@H](Cc1c[nH]cn1)NC(=O)[C@H](CCCCN)NC(=O)[C@H](CCCNC(=N)N)NC(=O)[C@H](CC(C)C)NC(=O)[C@@H](N)CCCCN)C(=O)N[C@@H](CC(C)C)C(=O)N[C@@H](CCC(N)=O)C(=O)N[C@@H](CCCNC(=N)N)C(=O)N[C@@H](CCCNC(=N)N)C(=O)N[C@@H](CC)C(=O)N[C@@H](CCSC)C(=O)N1CCC[C@H]1C(=O)N[C@@H](CC(C)C)C(=O)N[C@@H](Cc1c[nH]cn1)C(=O)N[C@@H](CO)C(=O)N[C@@H](CCCNC(=N)N)C(=O)N[C@H](C(=O)N1CCC[C@H]1C(=O)N[C@@H](Cc1ccccc1)C(=O)N1CCC[C@H]1C(=O)O)C(C)C [compound 14] | 32.4 nM | < 1% | < 1% |  | 
CCCC[C@H](NC(=O)[C@@H]1CCCN1C(=O)CNC(=O)[C@H](CCCCN)NC(=O)[C@H](Cc1c[nH]cn1)NC(=O)[C@H](CO)NC(=O)[C@](C)(CC(C)C)NC(=O)[C@H](CCCCNC(=N)N)NC(=O)[C@@H]1CCCN1C(=O)[C@@H](CCCNC(=N)N)NC(=O)[C@H](CCC(N)=O)NC(C)=O)C(=O)N1CCC[C@H]1C(=O)N[C@@H](Cc1ccc(Cl)cc1)C(=O)O [compound 70] | 9.74 nM | 86.1% | 84.9% |  | 
CCCCCCCCCCCCC(=O)N[C@@H](CCC(=O)NCCOCCOCC(=O)NCCOCCOCC(=O)N[C@@H](CCC(N)=O)C(=O)N[C@@H](CCCNC(=N)N)C(=O)N1CCC[C@H]1C(=O)N(C)[C@@H](CCCNC(=N)N)C(=O)N[C@@H](CC(C)C)C(=O)N[C@@H](CO)C(=O)N[C@@H](Cc1c[nH]cn1)C(=O)N[C@@H](CCCCN)C(=O)NCC(=O)N1[C@H](C(=O)N[C@@H](CCCC)C(=O)N2CCC[C@H]2C(=O)N[C@@H](Cc2ccc(Cl)cc2)C(=O)O)C[C@@H]2CCCC[C@@H]21)C(=O)O [compound 352] ({Tridecanoyl-γGlu-AEEA-AEEA}-QRP[NMeR]LSHKG[Oic][Nle]P[Phe(4-Cl)]-OH) |  | 88% | 0% | 0.23 nM | 
CCCCCCCCCCCCC(=O)N[C@@H](CCC(=O)NCCOCCOCC(=O)NCCOCCOCC(=O)N[C@@H](CCC(N)=O)C(=O)N[C@@H](CCCNC(=N)N)C(=O)N(C)[C@@H](CCCNC(=N)N)C(=O)N[C@@](C)(CC(C)C)C(=O)N[C@@H](CO)C(=O)N[C@@H](Cc1c[nH]cn1)C(=O)N[C@@H](CCCCN)C(=O)NCC(=O)N1[C@H](C(=O)N[C@@H](CCCC)C(=O)N2CCC[C@H]2C(=O)N[C@@H](Cc2ccc(Cl)cc2)C(=O)O)C[C@@H]2CCCC[C@@H]21)C(=O)O [compound 396] ({Tridecanoyl-γGlu-AEEA-AEEA}-QR[NMeR][αMeL]SHKG[Oic][Nle]P[Phe(4-Cl)]-OH) |  | > 90% | < 1% | 1.14 nM | 
CCCCCCCCCCCCC(=O)N[C@@H](CCC(=O)NCCOCCOCC(=O)NCCOCCOCC(=O)N[C@@H](CCC(N)=O)C(=O)N[C@@H](CCCNC(=N)N)C(=O)N1CCC[C@H]1C(=O)N(C)[C@@H](CCCNC(=N)N)C(=O)N[C@@H](CC(C)C)C(=O)N[C@@H](CO)C(=O)N[C@@H](Cc1c[nH]cn1)C(=O)NCCC(=O)NCC(=O)N1CCC[C@H]1C(=O)N[C@@H](CCCC)C(=O)N1CCC[C@H]1C(=O)N[C@@H](Cc1ccc(Cl)cc1)C(=O)O)C(=O)O [compound 424] ({Tridecanoyl-γGlu-AEEA-AEEA}-QRP[NMeR]LSH[βAla]GP[Nle]P[Phe(4-Cl)]-OH) |  | 2% | < 1% | 17.2 nM | 
CCCCCCCCCC(=O)N[C@@H](CCC(=O)NCCOCCOCC(=O)NCCOCCOCC(=O)N[C@@H](CCC(N)=O)C(=O)N[C@@H](CCCNC(=N)N)C(=O)N1CCC[C@H]1C(=O)N(C)[C@@H](CCCNC(=N)N)C(=O)N[C@@H](CC(C)C)C(=O)N[C@@H](CO)C(=O)N[C@@H](Cc1c[nH]cn1)C(=O)N[C@@H](CCCCN)C(=O)NCC(=O)N1CCC[C@H]1C(=O)N[C@@H](CCCC)C(=O)N1CCC[C@H]1C(=O)N[C@@H](Cc1ccc(Cl)cc1)C(=O)O)C(=O)O [compound 494] | 0.147 nM |  |  |  | 
CCCCCCCCCCCCC(=O)N[C@@H](CCC(=O)NCCOCCOCC(=O)NCCOCCOCC(=O)NC(CC)(CC)C(=O)N[C@@H](CCCCNC(=N)N)C(=O)N1CCC[C@H]1C(=O)N[C@H](CCCNC(=N)N)C(=O)N[C@@H](CC1CCCCC1)C(=O)N[C@@H](CO)C(=O)N[C@@H](Cc1c[nH]cn1)C(=O)N[C@@H](CCCCN)C(=O)NCC(=O)N1[C@H](C(=O)N[C@@H](CCCC)C(=O)N2CCC[C@H]2C(=O)N[C@@H](Cc2ccc(Cl)cc2)C(=O)O)C[C@@H]2CCCC[C@@H]21)C(=O)O [compound 558] ({Tridecanoyl-γGlu-AEEA-AEEA}-[Deg][hArg]P[dR][Cha]SHKG[Oic][Nle]P[Phe(4-Cl)]-OH) | 12.5 nM |  |  |  | 
{H2}[MerPr](10K mPEGacetamide)QRPRLSHKGPMPF{COOH} (N-terminal MerPr 10K mPEG acetamide; source: /note="N-term MerPr(10KmPEGacetamide)") [SEQ ID NO: 110, reference compound] |  |  |  |  | 390 nM

The remaining lines, values ahead:

EC50 (rat APJ receptor; [3]) | remaining at 4 h, 5 μM [1] | remaining at 4 h, 5 μM [2] | EC50 (rat APJ receptor; [4]) | EC50 (rat APJ receptor; aqueous stock, absence of DMSO, read-out: rAPJ EC50) | Compound
5.94 nM | < 1% | < 1% |  |  | CCCCCC(=O)N[C@@H](CCC(=O)NCCOCCOCC(=O)NCCOCCOCC(=O)N[C@@H](CCC(N)=O)C(=O)N(C)[C@@H](CCCCNC(=N)N)C(=O)N1CCC[C@H]1C(=O)N(C)[C@@H](CCCNC(=N)N)C(=O)N[C@@](C)(CC(C)C)C(=O)N[C@@H](CO)C(=O)N[C@@H](Cc1c[nH]cn1)C(=O)N[C@@H](CCCCN)C(=O)NCC(=O)N1CCC[C@H]1C(=O)N[C@@H](CCCC)C(=O)N1CCC[C@H]1C(=O)N[C@@H](Cc1ccc(Cl)cc1)C(=O)O)C(=O)O [compound 561]
2.83 nM |  |  |  |  | CCCCCCCCCCCCCCCC(=O)N[C@@H](CCC(=O)NCCOCCOCC(=O)NCCOCCOCC(=O)N[C@H](CCC(N)=O)C(=O)N[C@@H](CCCNC(=N)N)C(=O)N1CCC[C@H]1C(=O)N(C)[C@@H](CCCNC(=N)N)C(=O)N[C@@H](CC1CCCCC1)C(=O)N[C@@H](CO)C(=O)N[C@@H](Cc1c[nH]cn1)C(=O)N[C@@H](CCCCN)C(=O)NCC(=O)N1CCCC[C@H]1C(=O)N[C@@H](CCCC)C(=O)N[C@@H](CC(=O)O)Cc1ccccc1)C(=O)O [compound 574] ({Palmitoyl-γGlu-AEEA-AEEA}-[dQ]RP[NMeR][Cha]SHKG[Pip][Nle][d(β3hF)]-OH)
14.9 nM |  |  |  |  | CCCCCCCCCCCCCCCC(=O)N[C@@H](CCC(=O)NCCOCCOCC(=O)NCCOCCOCC(=O)N[C@H](CCC(N)=O)C(=O)N[C@@H](CCCNC(=N)N)C(=O)N1CCC[C@H]1C(=O)N(C)[C@@H](CCCNC(=N)N)C(=O)N[C@@H](CC1CCCCC1)C(=O)N[C@@H](CO)C(=O)N[C@@H](Cc1c[nH]cn1)C(=O)N[C@@H](Cc1cccnc1)C(=O)NCC(=O)N1[C@H](C(=O)N[C@@H](CCCC)C(=O)N2CCC[C@H]2CC(=O)N[C@@H](CC(=O)O)Cc2ccccc2)C[C@@H]2CCCC[C@@H]21)C(=O)O [compound 620] ({Palmitoyl-γGlu-AEEA-AEEA}-[dQ]RP[NMeR][Cha]SH[3Pal]G[Oic][Nle][β3hP][d(β3hF)]-OH)
> 4170 nM |  |  |  |  | CCCCCCCCCCCCCCCC(=O)N[C@@H](CCC(=O)NCCOCCOCC(=O)NCCOCCOCC(=O)N[C@H](CCC(N)=O)C(=O)N[C@@H](CCCNC(=N)N)C(=O)N1CCC[C@H]1C(=O)N(C)[C@@H](CCCNC(=N)N)C(=O)N[C@@H](CC1CCCCC1)C(=O)N[C@@H](CO)C(=O)N[C@@H](Cc1c[nH]cn1)C(=O)N(CC(=O)NCC(=O)N1[C@H](C(=O)N[C@@H](CCCC)C(=O)N2CCC[C@H]2CC(=O)N[C@@H](CC(=O)O)Cc2ccccc2)C[C@@H]2CCCC[C@@H]21)C1CCNCC1)C(=O)O [compound 633] ({Palmitoyl-γGlu-AEEA-AEEA}-[dQ]RP[NMeR][Cha]SH[X1]G[Oic][Nle][β3hP][d(β3hF)]-OH)
0.994 nM |  |  |  |  | CCCCCCCCCCCCCCCC(=O)N[C@@H](CCC(=O)NCCOCCOCC(=O)NCCOCCOCC(=O)N[C@H](CCC(N)=O)C(=O)N(CC(=O)N1CCC[C@H]1C(=O)N(C)[C@@H](CCCNC(=N)N)C(=O)N[C@@H](CC1CCCCC1)C(=O)N[C@@H](CO)C(=O)N[C@@H](Cc1c[nH]cn1)C(=O)N[C@@H](CCCCN)C(=O)NCC(=O)N1CCCC[C@H]1C(=O)N[C@@H](CCCC)C(=O)NC(C)(C)C(=O)N[C@@H](Cc1ccc(Cl)cc1)C(=O)O)C1CCNCC1)C(=O)O [compound 646] ({Palmitoyl-γGlu-AEEA-AEEA}-[dQ][X1]P[NMeR][Cha]SHKG[Pip][Nle][Aib][Phe(4-Cl)]-OH)
